In PMC12671080, “Antimicrobial activities of quaternary phosphonium-type small molecular antibacterial materials against methicillin-resistant Staphylococcus aureus” (Microbiology Spectrum, 2025):
Read-outs that look alike come from different tables or passages of the source. Values belong to the compound of their own block, whether it stands above or below them.

What was measured:
[1] = test system: Escherichia coli (E. coli, ATCC 25922); experiment: MIC test, modified broth microdilution; assay type: cell-based; conditions: read-out: Minimal inhibitory concentration (MIC) against E. coli
Experimental: (§1) All bacteria cells were first pre-grown overnight on blood agar plates at 37°C in a bacteriological incubator. Next, a single colony was transferred into fresh Muller Hinton broth (MHB) medium and harvested by centrifugation during the exponential growth phase, before being resuspended in sterile 0.9% physiological saline. Finally, bacterial cells were adjusted to the 0.5 McFarland standard (1.5 × 10^8 CFU/mL), and the solution was diluted in MHB to the predetermined concentrations.
(§2) MICs of all materials against MRSA, E. coli, and P. aeruginosa strains were determined using a modified broth microdilution method ([28]). Briefly, log-phase cultures (1.0 × 10⁶ CFU/mL) of each strain were inoculated into 96-well microtiter plates preloaded with serially diluted test compounds.

[2] = test system: MRSA (ATCC 43300); experiment: MIC test, modified broth microdilution; assay type: cell-based; conditions: Staphylococcus aureus, 24 h
Experimental: as §1, §2

[3] = Cytotoxicity assay (CCK-8); conditions: mouse
Experimental: (§3) The cytotoxicity of the nanocomposite was evaluated by CCK-8 assay using a commercial kit (CK04; Dojindo, Japan). […] Cell viability was calculated according to the following formula: cell viability (%) = (Ae − Ab)/(Ac − Ab) × 100% (Ab:OD of blank wells at 450 nm, Ac:OD of control wells at 450 nm, Ae:OD of experimental wells at 450 nm).

[4] = test system: Pseudomonas aeruginosa (P. aeruginosa, ATCC 27853); experiment: MIC test, modified broth microdilution; assay type: cell-based; conditions: ATCC27853, 24 h
Experimental: as §1, §2

[5] = test system: MRSA; experiment: SEM of bacterial morphology and bacterial biofilm; assay type: cell-based, Staphylococcus aureus; conditions: 24 h
Experimental: Scanning electron microscopy was used to observe bacterial morphology and bacterial biofilm formation. […] Samples were then washed with PBS and dehydrated in a graded ethanol series (30%, 50%, 70%, 80%, 90%, 95%, and 100%). After lyophilization and gold spraying, the MRSA cells were visualized by SEM (SU8100, Hitachi, Tokyo, Japan). Bacterial biofilms were subjected to SEM as previously reported with slight modifications ([31]). Cell crawling pieces were incubated in 1 mL of MRSA solution (1 × 10^6 CFU/mL) in a 24-well plate. […] After 24 h of incubation at 37°C, the samples were processed as described above and the MRSA biofilms on the cell crawling pieces were observed by scanning electron microscopy.

[6] = test system: MRSA; experiment: Protein leakage assay (Bradford); assay type: cell-based, Staphylococcus aureus; conditions: 32 µg/mL (2 × MIC), 24 h
Experimental: The quantitative detection of protein leakage of bacteria was carried out by protein leakage assay using a Bradford Protein Assay Kit (P0006; Beyotime, Nantong, China). […] The bacterial solution without [PTPP]·I was used as a control. The mixture was incubated in a shaker at 37°C for 24 h and then centrifuged at 10,000 rpm at 4°C for 10 min. The supernatant was immediately collected, and protein detection reagent was added to determine the optical density (OD 600) using a Microplate Reader (Thermo Fisher Scientific, Multiskan GO) and finally converted to protein concentration values based on the standard curve.

[7] = test system: MRSA; experiment: Agar diffusion test; assay type: cell-based, Staphylococcus aureus; conditions: 10 µL of 512 µg/mL on 6.0 mm disc, overnight 37°C
Experimental: Bacterial suspensions (1.5 × 10^8 CFU/mL) were spread onto Mueller-Hinton (M-H) agar plates using sterile cotton swabs to form a uniform carpet. A 10 µL solution of each of the five nanomaterials at a concentration of 512 µg/mL, along with PBS, was carefully applied to the surface of filter paper discs (6.0 mm in diameter), which were then placed onto M-H agar plates and incubated overnight at 37°C. Inhibition zones appeared as transparent halos on the agar surface.

[8] = test system: MRSA biofilm; experiment: Resazurin staining, metabolic activity of bacteria within biofilms; assay type: cell-based, Staphylococcus aureus; conditions: 24 h
Experimental: The metabolic activity of bacteria within biofilms was tested using resazurin (Sigma Aldrich, St. Louis, MO, USA), as previous report with slightly modified ([33]). Bacterial suspensions were exposed to graded concentrations (range 4–32 μg/mL) of [PTPP]·I in MHB broth for 24 h at 37°C. After incubation, the wells were washed three times with PBS and 0.01% final concentration of resazurin (Sigma Aldrich, St. Louis, MO, USA) was added, followed by an incubation for 1 h. Finally, the absorbance was detected in a Multi-mode detection platform (Molecular Devices, SpectraMax i3x) in fluorescence mode with excitation at 570 nm and emission at 600 nm. Bacterial suspensions without [PTPP]·I were set as a positive control, and pure MHB broth was set as a blank control, which were taken as 100% and 0% metabolic activity, respectively. Metabolic activity was calculated according to the following formula: metabolic activity (%) = (ΔAbs of sample − ΔAbs of blank control)/(ΔAbs of positive control − ΔAbs of blank control); ΔAbs = absorbance at 570 nm − absorbance at 600 nm.

[9] = test system: MRSA; experiment: Time-kill kinetics assay (colony counting); assay type: cell-based, Staphylococcus aureus
Experimental: The bactericidal kinetics assay was carried out with a few minor modifications as previously stated to reveal the antimicrobial effectiveness of [PTPP]·I over time ([30]). […] Bacteria were sampled every 1 h from 0 h to 6 h, diluted in a gradient, and incubated in Luria-Bertani (LB) plates at 37°C for 24 h. Finally, plates with around 30 to 300 colonies were counted and CFU/mL for each time point was calculated to construct time-kill curves. After 3 h of treatment with different concentrations of [PTPP]·I, the bacterial solution was put into PBS for several consecutive 10-fold dilutions, and 100 µL of the mixture was uniformly spread on LB agar plates and then allowed to dry for a little while. The LB agar plates were placed in a constant-temperature incubator at 37°C for 24 h, and then the colonies on the LB agar plates were counted and photographed to observe the changes in the morphology and size of MRSA colonies.

[10] = test system: L929 cells; experiment: Cytotoxicity assay (CCK-8); conditions: at the concentration of MIC, 24 h, CCK-8
Experimental: as §3

[11] = test system: MRSA; experiment: Reactive oxygen species assay (DCFH-DA); assay type: cell-based, Staphylococcus aureus; conditions: 0.5 h
Experimental: The level of bacterial ROS induced by [PTPP]·I was detected by DCFH-DA assay (Reactive Oxygen Species Assay Kit, S0033S, Beyotime), as previously reported ([18]). Briefly, MRSA (1 × 10^8 CFU/mL) was inoculated with 10 µM of DCFH-DA in a centrifuge tube at 37°C for 30 min for probe loading. […] The bacterial solution without [PTPP]·I was included to use as a control. The samples were washed three times with sterile saline solution (0.9% NaCl). Finally, the level of bacterial total ROS was measured as the relative fluorescence intensity of the probes, which was detected in a Multi-mode detection platform (Molecular Devices, SpectraMax i3x) in fluorescence mode with excitation at 488 nm and emission at 525 nm.

[12] = test system: MRSA biofilm; experiment: Crystal violet staining of biofilm formation; assay type: cell-based, Staphylococcus aureus; conditions: 24 h
Experimental: Crystal violet staining was performed by the method reported previously to measure the anti-biofilm effect of [PTPP]·I ([32]). […] A parallel study was also performed with LB broth as a blank control and the MRSA suspension was cultured in an empty well as a positive control. After incubation, the non-adhered bacteria were removed by gently washing with PBS at least three times, and the adherent biofilm was fixed with methanol for 15 min and stained with 0.1% (wt/vol) crystal violet for another 15 min. Then the excess crystal violet was removed by repeatedly washing with PBS until the blank control wells were colorless. Finally, crystal violet bound to the biofilm was dissolved in 500 µL 95% ethanol and added into 96-well plates to measure the absorbance at 595 nm using a Microplate Reader (Thermo Fisher Scientific, Waltham, MA, USA).

[13] = test system: MRSA; experiment: Bacterial growth curve study (OD600); assay type: cell-based, Staphylococcus aureus
Experimental: Bacterial growth curve of [PTPP]·I against MRSA cells was determined by the method reported previously ([29]). […] The bacterial solution without [PTPP]·I was used as a positive control. OD values were continuously measured for 36 h at hourly intervals to construct bacterial growth curves.

[14] = ATCC25922, broth microdilution, 37°C, 24 h
[15] = broth microdilution, 37°C, read-out: Minimal inhibitory concentration (MIC) against MRSA
[16] = L929 cells, Cell viability of L929 cells, at the concentration of MIC, 24 h, CCK-8

MIC [1, 14]: ≤ 512 µg/mL
MIC [2, 15]: ≤ 32 µg/mL
SMILES: CCCC[P+](c1ccccc1)(c1ccccc1)c1ccccc1 [[BTPP]·I, n-butyl-triphenyl-phosphonium iodide]
viability at 24 h [3, 16]: ~95%

MIC [1, 14]: ≤ 512 µg/mL
MIC ([4]; broth microdilution, 37°C, 24 h, read-out: Minimal inhibitory concentration (MIC) against P. aeruginosa): 8000 µg/mL
MIC [2, 15]: ≤ 64 µg/mL
SMILES: CC[P+](c1ccccc1)(c1ccccc1)c1ccccc1 [[ETPP]·I, ethyl-triphenyl-phosphonium iodide]
viability at 24 h [3, 16]: ~90%

MIC [1, 14]: ≤ 512 µg/mL
MIC [2, 15]: ≤ 64 µg/mL
SMILES: CC(C)[P+](c1ccccc1)(c1ccccc1)c1ccccc1 [[ITPP]·I, i-propyl-triphenyl-phosphonium iodide]
viability at 24 h [3, 16]: ~95%

MIC ([1]; ATCC25922, 24 h): ≤ 512 µg/mL
MIC ([4]; read-out: Minimal inhibitory concentration (MIC) against P. aeruginosa, broth microdilution, 37°C, 24 h): 8000 µg/mL
MIC ([2]; read-out: Minimal inhibitory concentration (MIC) against MRSA, broth microdilution, 37°C, 24 h): 128 µg/mL
SMILES: C[P+](c1ccccc1)(c1ccccc1)c1ccccc1 [[MTPP]·I, methyl-triphenyl-phosphonium iodide]
viability at 24 h [3]: ~90%

MIC [1, 14]: ≤ 512 µg/mL
MIC [2, 15]: 16 µg/mL
SMILES: CCCCC[P+](c1ccccc1)(c1ccccc1)c1ccccc1 [[PTPP]·I, n-pentyl-triphenyl-phosphonium iodide]
Biofilm on cell crawling pieces by SEM ([5]; 16 µg/ml (1 × MIC)): no biofilm but only the residue of bacterial disruption
Bacterial morphology by SEM ([5]; 32 µg/mL (2 × MIC)): membranes/walls of MRSA cells became rough and concave, holes appeared
Protein leakage relative to control group [6]: about 2.6 times
Inhibition halos against MRSA [7]: obvious inhibition halos
Metabolic activity of biofilm bacteria, of positive control ([8]; 1/2 × MIC): more than 50%
Metabolic activity of intra-film bacteria, of positive control ([8]; 1 × MIC): 1%
Time to achieve survival rate less than 1% ([9]; 1 × MIC): 6 h
Reduction of viable count ([9]; 1 × MIC, within 1 h): approximately 1 log10 CFU/mL
Survival rate ([9]; 4 × MIC for 2 h): less than 1%
Cell viability of L929 cells [10]: 97%
viability at 24 h [3, 16]: > 97%
ROS level elevation vs the control group ([11]; 1 × MIC): 20%
ROS level elevation vs the control group ([11]; 2 × MIC): 30%
ROS level elevation vs the control group ([11]; 4 × MIC): 141%
Reduction of biofilm biomass ([12]; 1/2 × MIC): 35.4%
Reduction of biofilm biomass (biofilm inhibition rate) ([12]; 1 × MIC): 96.6%
Bacterial growth (OD600) ([13]; 2 µg/mL (1/8 × MIC) to 16 µg/mL (1 × MIC)): significantly inhibited
Lag phase of MRSA growth ([13]; at 1/2 × MIC): up to 10 h
